Test results from patent publication US8298781B2, “Compositions and methods for characterizing and regulating olfactory sensation” (Duke University, priority 2007, dated 2012).
Residue numbers refer to the chain shown, from its start.

Assays:
Type in all cases: cell-based
OR7D4 P79L = target: T1, OR7D4 P79L (Homo sapiens, UniProt Q8NG98, P79L); assay: Luciferase assay dose response, OR7D4 P79L; conditions: all concentrations tested
T1 construct: expressed in transfected cells; host or cells: Hana3A (HEK293T-derived)
T1 sequence (Q8NG98 1-312 P79L): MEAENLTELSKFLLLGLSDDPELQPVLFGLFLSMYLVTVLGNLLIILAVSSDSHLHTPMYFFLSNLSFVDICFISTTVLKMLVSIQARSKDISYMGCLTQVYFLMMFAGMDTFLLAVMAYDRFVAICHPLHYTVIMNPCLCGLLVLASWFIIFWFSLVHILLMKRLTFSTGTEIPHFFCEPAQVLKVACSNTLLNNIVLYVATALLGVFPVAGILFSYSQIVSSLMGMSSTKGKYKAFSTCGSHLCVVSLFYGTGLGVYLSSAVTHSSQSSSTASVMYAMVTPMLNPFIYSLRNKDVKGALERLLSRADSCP
Source text: (§1) Heterologous expression of human odorant receptors. 423 human odorant receptors including 337 predicted functional receptors were cloned. Odorant receptors that contained the first 20 amino acid of human rhodopsin (see, e.g., Krautwurst, D., et al., Cell 95, 917-926 (1998); herein incorporated by reference in its entirety) in pCl (Promega) were expressed in the Hana3A cell line along with a short form of mRTP1, RTP1S, (M37 to the C-terminal end), which enhanced functional expression of the odorant receptors. For immunocytochemistry, cells were fixed, permeabilized and incubated with monoclonal anti-rhodopsin antibody, 4D2 (see, e.g., Laird, D. W., et al., Invest Opthalmol Vis Sci 29.419428 (1988); herein incorporated by reference in its entirety), followed by Cy3-conjugated donkey anti-mouse IgG (Jackson Immunologicals). […]
(§2) Luciferase assay and data analysis. […] Luminescence was measured using Wallac Victor 1420 (Perkin-Elmer). Normalized luciferase activity was calculated by the formula [luc(N)-luc(lowest)]/luc(highest)/RL (N) where luc(N)=luminescence of luciferase of a certain well; luc(lowest)=lowest luminescence of luciferase of a plate or a set of plates; luc(highest)=highest luminescence of luciferase of a plate or a set of plates; RL(N)=luminescence of Renilla luciferase of a certain well. Data was analyzed with Microsoft Excel and GraphPad Prism 4.

OR7D4 WM = target: T2, OR7D4 WM (Homo sapiens, UniProt Q8NG98, R88W/T133M); assay: Luciferase assay of odorant receptor activation in Hana3A cells, OR7D4 WM; conditions: variant R88W/T133M, relative to OR7D4 RT
T2 construct: expressed in transfected cells; host or cells: Hana3A (HEK293T-derived)
T2 sequence (Q8NG98 1-312 R88W/T133M): T1 sequence (Q8NG98 1-312 P79L) with L79P, R88W, T133M
Source text: as §1, §2

OR7D4 S84N = target: T3, OR7D4 S84N (Homo sapiens, UniProt Q8NG98, S84N); assay: Luciferase assay dose response, OR7D4 S84N; conditions: exceeding the activity of RT variant at every concentration tested
T3 sequence (Q8NG98 1-312 S84N): T1 sequence (Q8NG98 1-312 P79L) with L79P, S84N
Source text: as §1, §2

Row | SMILES | dose-response function of OR7D4 P79L in vitro (OR7D4 P79L) | function of OR7D4 WM in vitro in the presence of the odor (OR7D4 WM) | dose-response sensitivity of OR7D4 S84N in vitro (OR7D4 S84N)
1 | C[C@@]12C=CC[C@H]1[C@@H]1CCC3=CC(=O)CC[C@]3(C)[C@H]1CC2 [androstadienone, androsta-4,16-dien-3-one] | severely impaired function | severely impaired olfactory function | remarkable sensitivity
2 | C[C@]12CCC(=O)C[C@@H]1CC[C@@H]1[C@@H]2CC[C@]2(C)C=CC[C@@H]12 [androstenone, 5α-androst-16-en-3-one] | severely impaired function | severely impaired olfactory function | remarkable sensitivity
